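Test compounds were applied to cells in 96-well plates for 48 hours at 5 doses. GI50 marks 50% less growth. The concentration for full growth arrest is given as TGI.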
Columns and labels:
Test in all cases: NCI-60 cell line screen, 48 h
OVCAR-3 ovarian = system: OVCAR-3 ovarian
TK-10 renal = system: TK-10 renal
A549 NSCLC = system: A549 NSCLC
HT29 colon = system: HT29 colon
NCI-H23 lung = system: NCI-H23 lung
SW-620 colon = system: SW-620 colon
KM12 colon = system: KM12 colon
T-47D breast = system: T-47D breast
COLO 205 colon = system: COLO 205 colon
SN12C renal = system: SN12C renal

Structure (SMILES): COc1ccc(OC)c(-c2cc(-c3ccc(Cl)cc3)nn2-c2ccc(S(=O)(=O)NC(C)=O)cc2)c1
- GI50 (OVCAR-3 ovarian): 25.4 µM
- TGI (OVCAR-3 ovarian): 64.7 µM
- GI50 (TK-10 renal): 19.3 µM
- TGI (TK-10 renal): 38.2 µM
- GI50 (A549 NSCLC): 28.6 µM
- TGI (A549 NSCLC): > 100 µM
- GI50 (HT29 colon): 5.54 µM
- TGI (HT29 colon): > 100 µM
- GI50 (NCI-H23 lung): 11.3 µM
- TGI (NCI-H23 lung): 25.6 µM
- GI50 (SW-620 colon): 5.39 µM
- TGI (SW-620 colon): 22.2 µM
- GI50 (KM12 colon): 20.3 µM
- TGI (KM12 colon): 46.2 µM
- GI50 (T-47D breast): 13.1 µM
- TGI (T-47D breast): 36.1 µM
- GI50 (COLO 205 colon): 18.2 µM
- TGI (COLO 205 colon): 46.7 µM
- GI50 (SN12C renal): 3.02 µM
- TGI (SN12C renal): 10.9 µM

Structure (SMILES): CN1C(=O)N[C@H]2[C@@H]3NC(=O)c4ccc(Br)n4[C@@H]3C[C@]21O
- GI50 (OVCAR-3 ovarian): 0.121 µM
- TGI (OVCAR-3 ovarian): 1.85 µM
- GI50 (TK-10 renal): 0.429 µM
- TGI (TK-10 renal): 4.51 µM
- GI50 (A549 NSCLC): 0.27 µM
- TGI (A549 NSCLC): 4.47 µM
- GI50 (HT29 colon): 0.0956 µM
- TGI (HT29 colon): 2.29 µM
- GI50 (NCI-H23 lung): 0.0968 µM
- TGI (NCI-H23 lung): 1.42 µM
- GI50 (SW-620 colon): 0.116 µM
- TGI (SW-620 colon): 12.5 µM
- GI50 (KM12 colon): 0.191 µM
- TGI (KM12 colon): 5.47 µM
- GI50 (T-47D breast): 0.0313 µM
- TGI (T-47D breast): 0.23 µM
- GI50 (COLO 205 colon): 0.0832 µM
- TGI (COLO 205 colon): 1.18 µM
- GI50 (SN12C renal): 0.106 µM
- TGI (SN12C renal): 2.19 µM

Structure (SMILES): CC(C)(C)CC(C)(C)NCc1cc(C(C)(C)C)cc(CNC(C)(C)CC(C)(C)C)c1O
- GI50 (OVCAR-3 ovarian): 2.59 µM
- TGI (OVCAR-3 ovarian): 7 µM
- GI50 (TK-10 renal): 2.55 µM
- TGI (TK-10 renal): 5.87 µM
- GI50 (A549 NSCLC): 3.97 µM
- TGI (A549 NSCLC): 14.7 µM
- GI50 (HT29 colon): 2.4 µM
- TGI (HT29 colon): 9.7 µM
- GI50 (NCI-H23 lung): 2.42 µM
- TGI (NCI-H23 lung): 7.8 µM
- GI50 (SW-620 colon): 2.79 µM
- TGI (SW-620 colon): 12.4 µM
- GI50 (KM12 colon): 3.32 µM
- TGI (KM12 colon): 11.2 µM
- GI50 (T-47D breast): 2.09 µM
- TGI (T-47D breast): 5.14 µM
- GI50 (COLO 205 colon): 1.41 µM
- TGI (COLO 205 colon): 2.8 µM
- GI50 (SN12C renal): 2.74 µM
- TGI (SN12C renal): 11.9 µM

Structure (SMILES): COc1cc(-c2nc(-c3nc4ccccc4[nH]3)cc3c2[nH]c2ccccc23)cc(OC)c1OC
- GI50 (OVCAR-3 ovarian): 6.2 µM
- TGI (OVCAR-3 ovarian): > 100 µM
- GI50 (TK-10 renal): 4.71 µM
- TGI (TK-10 renal): > 100 µM
- GI50 (A549 NSCLC): 3.2 µM
- TGI (A549 NSCLC): > 100 µM
- GI50 (HT29 colon): 6.87 µM
- TGI (HT29 colon): > 100 µM
- GI50 (NCI-H23 lung): 4.4 µM
- TGI (NCI-H23 lung): > 100 µM
- GI50 (SW-620 colon): 7.14 µM
- TGI (SW-620 colon): > 100 µM
- GI50 (KM12 colon): 3.67 µM
- TGI (KM12 colon): > 100 µM
- GI50 (T-47D breast): 2.92 µM
- TGI (T-47D breast): > 100 µM
- GI50 (COLO 205 colon): 4.58 µM
- TGI (COLO 205 colon): > 100 µM
- GI50 (SN12C renal): 6.27 µM
- TGI (SN12C renal): > 100 µM

Structure (SMILES): COC(=O)c1cc(O)c2c(c1C(=O)OC)C[C@H]1[C@@H]3CC=C4C[C@@H](O)CC[C@]4(C)[C@H]3CC[C@]21C
- GI50 (OVCAR-3 ovarian): 2.19 µM
- TGI (OVCAR-3 ovarian): 4.94 µM
- GI50 (TK-10 renal): 3.83 µM
- TGI (TK-10 renal): 11.8 µM
- GI50 (A549 NSCLC): 3.06 µM
- TGI (A549 NSCLC): 11.7 µM
- GI50 (HT29 colon): 2.74 µM
- TGI (HT29 colon): 7 µM
- GI50 (NCI-H23 lung): 3.5 µM
- TGI (NCI-H23 lung): 23.5 µM
- GI50 (SW-620 colon): 3.48 µM
- TGI (SW-620 colon): 17.6 µM
- GI50 (KM12 colon): 2.91 µM
- TGI (KM12 colon): 12.2 µM
- GI50 (T-47D breast): 1.51 µM
- TGI (T-47D breast): 6.91 µM
- GI50 (SN12C renal): 3.57 µM
- TGI (SN12C renal): 26.8 µM

Structure (SMILES): CC1(CCC(=O)OC2CCCCC2)OCCO1
- TGI (OVCAR-3 ovarian): > 100 µM
- TGI (TK-10 renal): > 100 µM
- TGI (A549 NSCLC): > 100 µM
- TGI (HT29 colon): > 100 µM
- TGI (NCI-H23 lung): > 100 µM
- TGI (SW-620 colon): > 100 µM
- TGI (KM12 colon): > 100 µM
- TGI (T-47D breast): > 100 µM
- TGI (COLO 205 colon): > 100 µM
- TGI (SN12C renal): > 100 µM

Structure (SMILES): SCCSCCCSCCS
- TGI (OVCAR-3 ovarian): > 100 µM
- TGI (A549 NSCLC): > 100 µM
- TGI (HT29 colon): > 100 µM
- TGI (NCI-H23 lung): > 100 µM
- TGI (SW-620 colon): > 100 µM
- TGI (KM12 colon): > 100 µM
- TGI (T-47D breast): > 100 µM
- TGI (COLO 205 colon): > 100 µM
- TGI (SN12C renal): > 100 µM

Structure (SMILES): CCn1c(-c2cc3ccccc3cc2O)nn(C(=O)c2c(Cl)cccc2Cl)c1=S
- GI50 (OVCAR-3 ovarian): 23.7 µM
- TGI (OVCAR-3 ovarian): > 50 µM
- GI50 (A549 NSCLC): > 50 µM
- TGI (A549 NSCLC): > 50 µM
- GI50 (HT29 colon): > 50 µM
- TGI (HT29 colon): > 50 µM
- GI50 (NCI-H23 lung): 20.3 µM
- TGI (NCI-H23 lung): > 50 µM
- GI50 (SW-620 colon): 15.3 µM
- TGI (SW-620 colon): > 50 µM
- GI50 (KM12 colon): > 50 µM
- TGI (KM12 colon): > 50 µM
- GI50 (T-47D breast): 21 µM
- TGI (T-47D breast): > 50 µM
- GI50 (COLO 205 colon): 40.3 µM
- TGI (COLO 205 colon): > 50 µM
- GI50 (SN12C renal): 23.7 µM
- TGI (SN12C renal): > 50 µM

Structure (SMILES): N#CCN/C=C\C(=O)c1ccc(Cl)cc1
- GI50 (OVCAR-3 ovarian): 17.7 µM
- TGI (OVCAR-3 ovarian): 59.1 µM
- GI50 (TK-10 renal): 31.1 µM
- TGI (TK-10 renal): > 100 µM
- GI50 (A549 NSCLC): > 100 µM
- TGI (A549 NSCLC): > 100 µM
- GI50 (NCI-H23 lung): 32.9 µM
- TGI (NCI-H23 lung): 86.2 µM
- GI50 (SW-620 colon): 37.8 µM
- TGI (SW-620 colon): > 100 µM
- GI50 (KM12 colon): 36.5 µM
- TGI (KM12 colon): > 100 µM
- GI50 (T-47D breast): 33.9 µM
- TGI (T-47D breast): > 100 µM
- GI50 (COLO 205 colon): 32.7 µM
- TGI (COLO 205 colon): > 100 µM
- GI50 (SN12C renal): 39.3 µM
- TGI (SN12C renal): > 100 µM

Structure (SMILES): Cc1cc(C)c(Cn2cnc3c(Cl)ncnc32)c(C)c1CCl
- GI50 (OVCAR-3 ovarian): 18.1 µM
- TGI (OVCAR-3 ovarian): 53.9 µM
- GI50 (A549 NSCLC): 37.7 µM
- TGI (A549 NSCLC): > 100 µM
- GI50 (HT29 colon): 25.8 µM
- TGI (HT29 colon): > 100 µM
- GI50 (NCI-H23 lung): 90.7 µM
- TGI (NCI-H23 lung): > 100 µM
- GI50 (SW-620 colon): 92.7 µM
- TGI (SW-620 colon): > 100 µM
- GI50 (KM12 colon): 31.1 µM
- TGI (KM12 colon): > 100 µM
- GI50 (T-47D breast): 24.9 µM
- TGI (T-47D breast): 95.3 µM
- GI50 (COLO 205 colon): 79.1 µM
- TGI (COLO 205 colon): > 100 µM
- GI50 (SN12C renal): > 100 µM
- TGI (SN12C renal): > 100 µM

Source: PubChem BioAssay (NCI)
